The NIST ThermoML archive (doi:10.1021/je900387e)
Numbers after ± are expanded uncertainties.

Assay: xn = mol fraction of the nth substance listed
Details: Liquid, Pycnometric method

CCCCBr [1-bromobutane] + O=C=O
mass density (327.6 K, 10630 kPa, x1 = 0.0683): 752 ± 4 kg/m3 | mass density (327.6 K, 10660 kPa, x1 = 0.0461): 688 ± 4 kg/m3 | mass density (327.6 K, 10730 kPa, x1 = 0.0989): 833 ± 4 kg/m3 | mass density (327.6 K, 10780 kPa, x1 = 0.1495): 951 ± 4 kg/m3 | mass density (327.6 K, 10840 kPa, x1 = 0.0461): 698 ± 4 kg/m3 | mass density (327.6 K, 10920 kPa, x1 = 0.0683): 762 ± 4 kg/m3 | mass density (327.6 K, 10990 kPa, x1 = 0.0461): 706 ± 4 kg/m3 | mass density (327.6 K, 11000 kPa, x1 = 0.1495): 954 ± 4 kg/m3 | mass density (327.6 K, 11060 kPa, x1 = 0.0989): 839 ± 4 kg/m3 | mass density (327.6 K, 11240 kPa, x1 = 0.0683): 773 ± 4 kg/m3 | mass density (327.6 K, 11280 kPa, x1 = 0.1495): 958 ± 4 kg/m3 | mass density (327.6 K, 11310 kPa, x1 = 0.0989): 845 ± 4 kg/m3 | mass density (327.6 K, 11520 kPa, x1 = 0.1495): 961 ± 4 kg/m3 | mass density (327.6 K, 11590 kPa, x1 = 0.0683): 783 ± 4 kg/m3 | mass density (327.6 K, 11620 kPa, x1 = 0.0989): 851 ± 4 kg/m3 | mass density (327.6 K, 11790 kPa, x1 = 0.1495): 964 ± 4 kg/m3 | mass density (327.6 K, 11960 kPa, x1 = 0.0989): 857 ± 4 kg/m3 | mass density (327.6 K, 11990 kPa, x1 = 0.0683): 794 ± 4 kg/m3 | mass density (327.6 K, 12050 kPa, x1 = 0.1495): 967 ± 4 kg/m3 | mass density (327.6 K, 12310 kPa, x1 = 0.0989): 862 ± 4 kg/m3 | mass density (327.6 K, 12370 kPa, x1 = 0.1495): 970 ± 4 kg/m3 | mass density (327.6 K, 12460 kPa, x1 = 0.0683): 805 ± 4 kg/m3 | mass density (327.6 K, 12670 kPa, x1 = 0.1495): 974 ± 4 kg/m3 | mass density (327.6 K, 12710 kPa, x1 = 0.0989): 869 ± 4 kg/m3 | mass density (327.6 K, 13000 kPa, x1 = 0.1495): 977 ± 4 kg/m3 | mass density (327.6 K, 13040 kPa, x1 = 0.0683): 817 ± 4 kg/m3 | mass density (327.6 K, 13110 kPa, x1 = 0.0989): 875 ± 4 kg/m3 | mass density (327.6 K, 13350 kPa, x1 = 0.1495): 981 ± 4 kg/m3 | mass density (327.6 K, 13520 kPa, x1 = 0.0989): 880 ± 4 kg/m3 | mass density (327.6 K, 13650 kPa, x1 = 0.0683): 829 ± 4 kg/m3 | mass density (327.6 K, 13660 kPa, x1 = 0.1495): 984 ± 4 kg/m3 | mass density (327.6 K, 13960 kPa, x1 = 0.1495): 987 ± 4 kg/m3 | mass density (327.6 K, 13980 kPa, x1 = 0.0989): 887 ± 4 kg/m3 | mass density (327.6 K, 13990 kPa, x1 = 0.0683): 835 ± 4 kg/m3 | mass density (327.6 K, 14320 kPa, x1 = 0.1495): 990 ± 4 kg/m3 | mass density (327.6 K, 14470 kPa, x1 = 0.0989): 893 ± 4 kg/m3 | mass density (327.6 K, 14690 kPa, x1 = 0.1495): 993 ± 4 kg/m3 | mass density (327.6 K, 14740 kPa, x1 = 0.0683): 848 ± 4 kg/m3 | mass density (327.6 K, 14960 kPa, x1 = 0.0683): 851 ± 4 kg/m3 | mass density (327.6 K, 15000 kPa, x1 = 0.0989): 900 ± 4 kg/m3 | mass density (327.6 K, 15090 kPa, x1 = 0.1495): 997 ± 4 kg/m3 | mass density (332.4 K, 9170 kPa, x1 = 0.0245): 317 ± 4 kg/m3 | mass density (332.4 K, 9200 kPa, x1 = 0.0245): 319 ± 4 kg/m3 | mass density (332.4 K, 9250 kPa, x1 = 0.0245): 323 ± 4 kg/m3 | mass density (332.4 K, 9300 kPa, x1 = 0.0245): 328 ± 4 kg/m3 | mass density (332.4 K, 9350 kPa, x1 = 0.0245): 332 ± 4 kg/m3 | mass density (332.4 K, 9350 kPa, x1 = 0.1495): 896 ± 4 kg/m3 | mass density (332.4 K, 9400 kPa, x1 = 0.0245): 336 ± 4 kg/m3 | mass density (332.4 K, 9440 kPa, x1 = 0.0245): 340 ± 4 kg/m3 | mass density (332.4 K, 9490 kPa, x1 = 0.0245): 345 ± 4 kg/m3 | mass density (332.4 K, 9540 kPa, x1 = 0.0245): 349 ± 4 kg/m3 | mass density (332.4 K, 9580 kPa, x1 = 0.0245): 354 ± 4 kg/m3 | mass density (332.4 K, 9580 kPa, x1 = 0.1495): 900 ± 4 kg/m3 | mass density (332.4 K, 9640 kPa, x1 = 0.0245): 359 ± 4 kg/m3 | mass density (332.4 K, 9670 kPa, x1 = 0.0989): 750 ± 4 kg/m3 | mass density (332.4 K, 9690 kPa, x1 = 0.0245): 364 ± 4 kg/m3 | mass density (332.4 K, 9740 kPa, x1 = 0.0245): 369 ± 4 kg/m3 | mass density (332.4 K, 9760 kPa, x1 = 0.1495): 903 ± 4 kg/m3 | mass density (332.4 K, 9780 kPa, x1 = 0.0989): 755 ± 4 kg/m3 | mass density (332.4 K, 9790 kPa, x1 = 0.0245): 375 ± 4 kg/m3 | mass density (332.4 K, 9810 kPa, x1 = 0.0461): 512 ± 4 kg/m3 | mass density (332.4 K, 9830 kPa, x1 = 0.0461): 516 ± 4 kg/m3 | mass density (332.4 K, 9840 kPa, x1 = 0.0245): 380 ± 4 kg/m3 | mass density (332.4 K, 9840 kPa, x1 = 0.0683): 622 ± 4 kg/m3 | mass density (332.4 K, 9870 kPa, x1 = 0.0683): 625 ± 4 kg/m3 | mass density (332.4 K, 9890 kPa, x1 = 0.0461): 521 ± 4 kg/m3 | mass density (332.4 K, 9890 kPa, x1 = 0.0989): 759 ± 4 kg/m3 | mass density (332.4 K, 9890 kPa, x1 = 0.1495): 906 ± 4 kg/m3 | mass density (332.4 K, 9900 kPa, x1 = 0.0245): 386 ± 4 kg/m3 | mass density (332.4 K, 9900 kPa, x1 = 0.0683): 629 ± 4 kg/m3 | mass density (332.4 K, 9930 kPa, x1 = 0.0461): 527 ± 4 kg/m3 | mass density (332.4 K, 9950 kPa, x1 = 0.0245): 392 ± 4 kg/m3 | mass density (332.4 K, 9960 kPa, x1 = 0.0683): 636 ± 4 kg/m3 | mass density (332.4 K, 9970 kPa, x1 = 0.0461): 533 ± 4 kg/m3 | mass density (332.4 K, 10000 kPa, x1 = 0.0683): 640 ± 4 kg/m3 | mass density (332.4 K, 10000 kPa, x1 = 0.0989): 764 ± 4 kg/m3 | mass density (332.4 K, 10010 kPa, x1 = 0.0245): 398 ± 4 kg/m3 | mass density (332.4 K, 10020 kPa, x1 = 0.0245): 399 ± 4 kg/m3 | mass density (332.4 K, 10020 kPa, x1 = 0.0461): 539 ± 4 kg/m3 | mass density (332.4 K, 10040 kPa, x1 = 0.1495): 909 ± 4 kg/m3 | mass density (332.4 K, 10060 kPa, x1 = 0.0461): 546 ± 4 kg/m3 | mass density (332.4 K, 10070 kPa, x1 = 0.0683): 647 ± 4 kg/m3 | mass density (332.4 K, 10110 kPa, x1 = 0.0989): 769 ± 4 kg/m3 | mass density (332.4 K, 10120 kPa, x1 = 0.0461): 552 ± 4 kg/m3 | mass density (332.4 K, 10150 kPa, x1 = 0.0683): 654 ± 4 kg/m3 | mass density (332.4 K, 10180 kPa, x1 = 0.0461): 559 ± 4 kg/m3 | mass density (332.4 K, 10190 kPa, x1 = 0.1495): 912 ± 4 kg/m3 | mass density (332.4 K, 10240 kPa, x1 = 0.0461): 566 ± 4 kg/m3 | mass density (332.4 K, 10240 kPa, x1 = 0.0683): 662 ± 4 kg/m3 | mass density (332.4 K, 10240 kPa, x1 = 0.0989): 774 ± 4 kg/m3 | mass density (332.4 K, 10300 kPa, x1 = 0.0461): 573 ± 4 kg/m3 | mass density (332.4 K, 10340 kPa, x1 = 0.0683): 670 ± 4 kg/m3 | mass density (332.4 K, 10370 kPa, x1 = 0.0461): 580 ± 4 kg/m3 | mass density (332.4 K, 10370 kPa, x1 = 0.0989): 778 ± 4 kg/m3
